One assay relates to A. fumigatus. As to the kind of experiment: Broth microdilution (NCCLS M38-A) checkerboard assay, A. fumigatus. The following applies: for MIC: Aspergillus fumigatus, agent alone, read-out: MIC-2 of each agent, Alone. The format is cell-based, Aspergillus fumigatus. Here is the method:
(§1) Stock solutions of amphotericin B (AMB, Sigma), caspofungin (Caspo), voriconazole (VOR) and itraconazole (ITZ) were prepared according to the National Committee for Clinical Laboratory Standards (M38-A) in RPMI 1640 with glutamine broth medium, buffered to pH 7.0 with […] morpholinopropanesulphonic acid (MOPS). AMB stock solutions were prepared as a 100× series in 100% dimethyl sulfoxide (DMSO) and diluted in medium to a concentration range of 0.03125 to 16 μg/ml. Caspofungin, voriconazole and itraconazole were tested at a concentration range of 0.03125 to 1024 μg/ml, and Mycograb® (NeuTec Pharma plc) at a concentration range of 0.25 to 1024 μg/ml.
(§2) Clinical isolates of Aspergillus fumigatus (2), A. flavus (1), A. terreus (1) and A. niger (1) were obtained from the Department on Microbiology, Manchester Royal Infirmary, Manchester, UK.
(§3) An inoculum suspension was prepared in buffered RPMI with glutamine medium by probing colonies from a 7 day old Sabouraud plate. The suspension was adjusted to 0.09-0.11 (80% to 82% transmittance) for Aspergillus species, 0.15-0.17 (68% to 70% transmittance). The inoculum was diluted a further 1:2 when added to the antifungal agents in the assay (final inoculum (0.4×10^4 to 0.5×10^4). For AMB and Mycograb®, either alone or in combination, the endpoint was determined as the concentration to produce no growth (MIC-0). Microtitre plates were incubated at 37° C. without agitation for 48 hours for Aspergillus species. For caspofungin, voriconazole and itraconazole, either alone or in combination with Mycograb® antibody, the MIC endpoint was determined as the concentration resulting in a prominent decrease in turbidity (≧50% growth inhibition, MIC-2) compared to the growth control (Keele et al. 2001; Espinel-Ingroff 2003). The final inhibitory concentration (FIC) was calculated for each drug by dividing the MIC in the presence of the second drug by the MIC in its absence. For each combination, two fractions were produced which were summated to produce the fractional final inhibitory concentration. Synergy was defined by value of ≦0.5, indifference was defined by a value of >0.5 to <4.0, and antagonism was defined by a value of ≧4.0 (Matthews et al., 2003).
(In broth dilution the organism is exposed to a series of concentrations in liquid medium.)

In a further assay the test system is A. fumigatus CI2. As to the kind of experiment: Broth microdilution (NCCLS M38-A) checkerboard assay, A. fumigatus CI2. The format is cell-based, Aspergillus fumigatus. The following applies: for MIC: Aspergillus fumigatus, agent alone, read-out: MIC-2 of each agent, Alone. The protocol: as §1, §2, §3
The test system of another assay is A. niger. Description: Broth microdilution (NCCLS M38-A) checkerboard assay, A. niger. The following applies: for MIC: Aspergillus niger, agent alone, read-out: MIC-2 of each agent, Alone. The format is cell-based. Here is the method: as §1, §2, §3
A further assay deals with A. flavus. Description: Broth microdilution (NCCLS M38-A) checkerboard assay, A. flavus. The format is cell-based. The following applies: for MIC: Aspergillus flavus, agent alone, read-out: MIC-2 of each agent, Alone. The protocol: as §1, §2, §3
A further assay has as its system A. terreus. Description: Broth microdilution (NCCLS M38-A) checkerboard assay, A. terreus. The format is cell-based. Conditions: for MIC: Aspergillus terreus, agent alone, read-out: MIC-2 of each agent, Alone; for FIC: MIC in combination divided by MIC alone. Here is the method: as §1, §2, §3
A further assay has as its system Aspergillus species. As to the kind of experiment: Antifungal activity with Mycograb antibody, summary over the Aspergillus species examined. The format is cell-based. Conditions: for Antifungal activity / surprising effect when used in combination with Mycograb antibody: summary of Tables 1-4, agent combined with Mycograb antibody. The protocol:
as §3

[1] abbreviates: Table 2, ≧50% growth inhibition endpoint.
Setting [2] is: caspofungin and Mycograb combination.
The mark [3] stands for this setting: caspofungin and Mycograb in combination.
[4] abbreviates: Table 3, ≧50% growth inhibition endpoint.
Setting [5] is: itraconazole and Mycograb combination.
[6] abbreviates: itraconazole and Mycograb in combination.
Where [7] appears, read: Table 4, ≧50% growth inhibition endpoint.
Where [8] appears, read: voriconazole and Mycograb combination.
Where [9] appears, read: voriconazole and Mycograb in combination.

Like-named read-outs stand apart in the source and are kept apart here.

On to `CC[C@H](C)C[C@H](C)CCCCCCCCC(=O)N[C@H]1C[C@@H](O)[C@@H](NCCN)NC(=O)[C@@H]2[C@@H](O)CCN2C(=O)[C@H]([C@H](O)CCN)NC(=O)[C@H]([C@H](O)[C@@H](O)c2ccc(O)cc2)NC(=O)[C@@H]2C[C@@H](O)CN2C(=O)[C@H]([C@@H](C)O)NC1=O` [Caspo, caspofungin], for which the MIC with A. fumigatus (setting [1]) stood at 0.125 µg/mL; in the assay with A. fumigatus CI2 (setting [1]) it was 0.125 µg/mL; in the assay on A. niger (setting [1]), 1 µg/mL; with A. flavus (setting [1]), 1 µg/mL; with A. terreus (setting [1]) it was 0.312 µg/mL. The FICI came out at 0.562 in the assay on A. fumigatus (setting [2]); 0.562 with A. fumigatus CI2 (setting [2]); 0.125 in the assay on A. niger (setting [2]); 0.500 in the assay with A. flavus (setting [2]); 0.312 in the assay with A. terreus (setting [2]). Further, the Outcome result with A. fumigatus (setting [2]) was “Indifferent (indifference was defined by a value of >0.5 to <4.0)”; in the assay on A. fumigatus CI2 (setting [2]) it was “Indifferent (indifference was defined by a value of >0.5 to <4.0)”; in the assay with A. niger (setting [2]), “Synergy (Synergy was defined by value of ≦0.5)”; in the assay with A. flavus (setting [2]) it was “Indifferent (indifference was defined by a value of >0.5 to <4.0)”; in the assay with A. terreus (setting [2]) it was “Synergy (Synergy was defined by value of ≦0.5)”. Also, the “MIC-2 of each agent, Combination” value with A. fumigatus (setting [3]) worked out at 0.0625 µg/mL; in the assay with A. fumigatus CI2 (setting [3]) it was 0.0625 µg/mL; in the assay with A. niger (setting [3]), 0.125 µg/mL; in the assay with A. flavus (setting [3]), 0.5 µg/mL; with A. terreus (setting [3]) it was 0.078 µg/mL. For the same compound, the FIC in the assay on A. terreus (caspofungin and Mycograb) is 0.25 µg/mL. In the assay on Aspergillus species, the “Antifungal activity / surprising effect when used in combination with Mycograb antibody” value is given as “not observed”.
In the case of `CCC(C)n1ncn(-c2ccc(N3CCN(c4ccc(OCC5COC(Cn6cncn6)(c6ccc(Cl)cc6Cl)O5)cc4)CC3)cc2)c1=O` (stereo not drawn) [ITZ, itraconazole], the MIC with A. fumigatus (setting [4]) stood at 0.5 µg/mL; in the assay with A. fumigatus CI2 (setting [4]), 0.5 µg/mL; with A. niger (setting [4]), 0.125 µg/mL; in the assay with A. flavus (setting [4]) it was 0.125 µg/mL; in the assay with A. terreus (setting [4]) it was 0.125 µg/mL. The FICI in the assay with A. fumigatus (setting [5]) was found to be 0.0781; in the assay with A. fumigatus CI2 (setting [5]), 0.2578; in the assay on A. niger (setting [5]) it was 0.375; in the assay on A. flavus (setting [5]) it was 0.25; in the assay on A. terreus (setting [5]) it was 0.281. Moreover, the Outcome entry in the assay on A. fumigatus (setting [5]), with A. fumigatus CI2 (setting [5]), in the assay on A. niger (setting [5]), with A. flavus (setting [5]) and in the assay with A. terreus (setting [5]) was “Synergy (Synergy was defined by value of ≦0.5)” throughout. Moreover, the “MIC-2 of each agent, Combination” value with A. fumigatus (setting [6]) came to 0.0312 µg/mL; in the assay with A. fumigatus CI2 (setting [6]) it was 0.125 µg/mL; in the assay on A. niger (setting [6]), 0.0156 µg/mL; in the assay with A. flavus (setting [6]), 0.0312 µg/mL; in the assay with A. terreus (setting [6]), 0.0312 µg/mL. Besides, in the assay on A. terreus (itraconazole and Mycograb), the FIC is 0.25 µg/mL.
For the compound `C[C@@H](c1ncncc1F)[C@](O)(Cn1cncn1)c1ccc(F)cc1F` [VOR, voriconazole], the minimal inhibitory concentration (MIC) stood at 0.0625 µg/mL in the assay on A. fumigatus (setting [7]); 0.25 µg/mL in the assay with A. fumigatus CI2 (setting [7]); 0.125 µg/mL in the assay with A. niger (setting [7]); 0.25 µg/mL with A. flavus (setting [7]); 0.25 µg/mL in the assay on A. terreus (setting [7]). For the same compound, the FICI is recorded as 0.5 in the assay with A. fumigatus (setting [8]); 0.5 in the assay on A. fumigatus CI2 (setting [8]); 2 in the assay on A. niger (setting [8]); 0.25 in the assay with A. flavus (setting [8]); 0.5 in the assay with A. terreus (setting [8]). The Outcome result in the assay on A. fumigatus (setting [8]) is on record as “Synergy (Synergy was defined by value of ≦0.5)”; in the assay on A. fumigatus CI2 (setting [8]) it was “Synergy (Synergy was defined by value of ≦0.5)”; with A. niger (setting [8]) it was “Indifferent (indifference was defined by a value of >0.5 to <4.0)”; in the assay with A. flavus (setting [8]) it was “Synergy (Synergy was defined by value of ≦0.5)”; with A. terreus (setting [8]) it was “Synergy (Synergy was defined by value of ≦0.5)”. In addition, the “MIC-2 of each agent, Combination” value is 0.0312 µg/mL in the assay with A. fumigatus (setting [9]); 0.125 µg/mL in the assay on A. fumigatus CI2 (setting [9]); 0.125 µg/mL in the assay on A. niger (setting [9]); 0.0625 µg/mL with A. flavus (setting [9]); 0.125 µg/mL with A. terreus (setting [9]). Further, in the assay with A. terreus (voriconazole and Mycograb), the FIC was 0.5 µg/mL. For the same compound, the “Antifungal activity / surprising effect when used in combination with Mycograb antibody” value in the assay with Aspergillus species is “surprisingly high level of antifungal activity against all the species examined except for A. niger”.
On to `CC[C@@H]([C@H](C)O)n1ncn(-c2ccc(N3CCN(c4ccc(OC[C@@H]5CO[C@@](Cn6cncn6)(c6ccc(F)cc6F)C5)cc4)CC3)cc2)c1=O` [posaconazole], for which, in the assay with Aspergillus species (preliminary results), the “Synergy with antibody specific for Aspergillus hsp90 epitope” value is “capable of achieving similar synergistic results”.

What is called MIC is the lowest concentration that inhibits growth of the organism.
